Drawing on patent US8134007B2, “Pyridine derivatives” (Pfizer Inc., priority 2007, dated 2012), this text covers IC50 for 31 compounds.

Holding throughout (assay type): cell-based
Test [1] has as its system tetrodotoxin-sensitive voltage-gated sodium channels including NaV1.2, NaV1.3 and NaV1.7. Put plainly: TTX-S Assay (VIPR, SHSY-5Y cell line, veratridine opener). The note with it: read-out: TTX-S IC50, veratridine 50 μM opener, average of replicates.
Another test concerns the target T1, Human Nav1.5 (Homo sapiens, UniProt Q14524).
T1 construct: expressed in transfected cells; host or cells: HEK293
Put plainly: Nav1.5 Assay (VIPR, HEK293 cells). To be noted: HEK293 cells expressing Human Nav1.5; average of replicates; read-out: Nav1.5 IC50. As for the experimental part:
The Nav1.5 assay is performed in HEK293 cells expressing Human Nav1.5 in the same way as the Nav1.8 assay.
Where replicate experiments were conducted resulting in multiple sets of data for a test compound, the data presented represent the average value from all replicate experiments.

The target in a further test is T2, Human Nav1.8 (Homo sapiens, UniProt Q9Y5Y9).
T2 construct: expressed in transfected cells; host or cells: HEK293
T2 sequence (Q9Y5Y9 whole entry): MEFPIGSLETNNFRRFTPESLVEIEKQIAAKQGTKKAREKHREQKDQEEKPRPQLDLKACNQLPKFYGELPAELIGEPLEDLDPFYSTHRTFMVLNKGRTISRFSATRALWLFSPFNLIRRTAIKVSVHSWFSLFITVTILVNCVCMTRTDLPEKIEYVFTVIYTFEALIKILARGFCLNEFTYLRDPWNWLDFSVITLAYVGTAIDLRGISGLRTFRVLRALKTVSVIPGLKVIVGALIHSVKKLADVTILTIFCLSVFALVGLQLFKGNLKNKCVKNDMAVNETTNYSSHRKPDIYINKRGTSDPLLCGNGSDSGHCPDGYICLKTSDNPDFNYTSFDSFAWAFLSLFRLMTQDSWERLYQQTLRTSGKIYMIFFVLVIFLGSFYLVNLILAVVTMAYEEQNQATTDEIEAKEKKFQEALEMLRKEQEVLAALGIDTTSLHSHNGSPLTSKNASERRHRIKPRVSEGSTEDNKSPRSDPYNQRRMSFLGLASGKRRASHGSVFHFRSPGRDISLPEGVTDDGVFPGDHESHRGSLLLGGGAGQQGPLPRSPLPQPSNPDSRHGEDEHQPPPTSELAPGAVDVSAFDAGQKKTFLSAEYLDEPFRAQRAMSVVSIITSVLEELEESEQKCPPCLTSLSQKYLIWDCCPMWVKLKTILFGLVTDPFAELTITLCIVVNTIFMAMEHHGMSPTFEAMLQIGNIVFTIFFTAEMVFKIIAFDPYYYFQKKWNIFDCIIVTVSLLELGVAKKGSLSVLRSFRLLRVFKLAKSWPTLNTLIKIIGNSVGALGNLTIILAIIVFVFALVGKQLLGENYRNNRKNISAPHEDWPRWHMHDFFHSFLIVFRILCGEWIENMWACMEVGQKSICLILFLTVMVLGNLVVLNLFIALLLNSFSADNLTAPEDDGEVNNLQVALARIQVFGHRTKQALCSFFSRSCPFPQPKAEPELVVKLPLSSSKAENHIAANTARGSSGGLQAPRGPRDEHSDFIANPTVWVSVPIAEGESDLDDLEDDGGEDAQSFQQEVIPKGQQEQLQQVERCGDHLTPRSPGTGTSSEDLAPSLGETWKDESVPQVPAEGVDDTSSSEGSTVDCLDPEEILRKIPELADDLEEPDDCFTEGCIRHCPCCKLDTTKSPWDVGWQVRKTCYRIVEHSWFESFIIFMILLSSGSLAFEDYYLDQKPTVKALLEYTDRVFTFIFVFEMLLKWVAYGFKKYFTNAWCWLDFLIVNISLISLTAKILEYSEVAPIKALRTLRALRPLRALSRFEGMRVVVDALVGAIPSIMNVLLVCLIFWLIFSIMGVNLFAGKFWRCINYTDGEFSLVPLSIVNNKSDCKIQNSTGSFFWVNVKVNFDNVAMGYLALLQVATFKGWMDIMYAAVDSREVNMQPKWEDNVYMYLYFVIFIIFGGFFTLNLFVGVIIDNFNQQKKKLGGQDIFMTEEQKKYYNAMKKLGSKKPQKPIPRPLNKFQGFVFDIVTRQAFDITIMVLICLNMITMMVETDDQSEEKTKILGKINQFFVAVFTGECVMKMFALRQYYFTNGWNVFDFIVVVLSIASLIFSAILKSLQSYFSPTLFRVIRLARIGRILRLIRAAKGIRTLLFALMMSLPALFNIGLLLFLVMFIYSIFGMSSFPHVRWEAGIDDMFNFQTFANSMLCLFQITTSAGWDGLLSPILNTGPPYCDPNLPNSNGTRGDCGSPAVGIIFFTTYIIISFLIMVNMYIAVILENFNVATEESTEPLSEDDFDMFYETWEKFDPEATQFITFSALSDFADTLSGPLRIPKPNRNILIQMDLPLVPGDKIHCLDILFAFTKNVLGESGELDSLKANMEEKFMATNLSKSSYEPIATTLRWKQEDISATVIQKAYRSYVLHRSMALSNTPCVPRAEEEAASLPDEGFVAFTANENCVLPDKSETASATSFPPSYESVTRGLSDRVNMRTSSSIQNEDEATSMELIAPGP
Put plainly: VIPR Assay for Nav1.8 Compounds (FRET membrane potential, deltamethrin opener). The note with it: VIPR FRET membrane potential assay, deltamethrin opener; average of replicates; read-out: Nav1.8 IC50.

Molecules are shown by their SMILES.

T1 sequence (Q14524 whole entry): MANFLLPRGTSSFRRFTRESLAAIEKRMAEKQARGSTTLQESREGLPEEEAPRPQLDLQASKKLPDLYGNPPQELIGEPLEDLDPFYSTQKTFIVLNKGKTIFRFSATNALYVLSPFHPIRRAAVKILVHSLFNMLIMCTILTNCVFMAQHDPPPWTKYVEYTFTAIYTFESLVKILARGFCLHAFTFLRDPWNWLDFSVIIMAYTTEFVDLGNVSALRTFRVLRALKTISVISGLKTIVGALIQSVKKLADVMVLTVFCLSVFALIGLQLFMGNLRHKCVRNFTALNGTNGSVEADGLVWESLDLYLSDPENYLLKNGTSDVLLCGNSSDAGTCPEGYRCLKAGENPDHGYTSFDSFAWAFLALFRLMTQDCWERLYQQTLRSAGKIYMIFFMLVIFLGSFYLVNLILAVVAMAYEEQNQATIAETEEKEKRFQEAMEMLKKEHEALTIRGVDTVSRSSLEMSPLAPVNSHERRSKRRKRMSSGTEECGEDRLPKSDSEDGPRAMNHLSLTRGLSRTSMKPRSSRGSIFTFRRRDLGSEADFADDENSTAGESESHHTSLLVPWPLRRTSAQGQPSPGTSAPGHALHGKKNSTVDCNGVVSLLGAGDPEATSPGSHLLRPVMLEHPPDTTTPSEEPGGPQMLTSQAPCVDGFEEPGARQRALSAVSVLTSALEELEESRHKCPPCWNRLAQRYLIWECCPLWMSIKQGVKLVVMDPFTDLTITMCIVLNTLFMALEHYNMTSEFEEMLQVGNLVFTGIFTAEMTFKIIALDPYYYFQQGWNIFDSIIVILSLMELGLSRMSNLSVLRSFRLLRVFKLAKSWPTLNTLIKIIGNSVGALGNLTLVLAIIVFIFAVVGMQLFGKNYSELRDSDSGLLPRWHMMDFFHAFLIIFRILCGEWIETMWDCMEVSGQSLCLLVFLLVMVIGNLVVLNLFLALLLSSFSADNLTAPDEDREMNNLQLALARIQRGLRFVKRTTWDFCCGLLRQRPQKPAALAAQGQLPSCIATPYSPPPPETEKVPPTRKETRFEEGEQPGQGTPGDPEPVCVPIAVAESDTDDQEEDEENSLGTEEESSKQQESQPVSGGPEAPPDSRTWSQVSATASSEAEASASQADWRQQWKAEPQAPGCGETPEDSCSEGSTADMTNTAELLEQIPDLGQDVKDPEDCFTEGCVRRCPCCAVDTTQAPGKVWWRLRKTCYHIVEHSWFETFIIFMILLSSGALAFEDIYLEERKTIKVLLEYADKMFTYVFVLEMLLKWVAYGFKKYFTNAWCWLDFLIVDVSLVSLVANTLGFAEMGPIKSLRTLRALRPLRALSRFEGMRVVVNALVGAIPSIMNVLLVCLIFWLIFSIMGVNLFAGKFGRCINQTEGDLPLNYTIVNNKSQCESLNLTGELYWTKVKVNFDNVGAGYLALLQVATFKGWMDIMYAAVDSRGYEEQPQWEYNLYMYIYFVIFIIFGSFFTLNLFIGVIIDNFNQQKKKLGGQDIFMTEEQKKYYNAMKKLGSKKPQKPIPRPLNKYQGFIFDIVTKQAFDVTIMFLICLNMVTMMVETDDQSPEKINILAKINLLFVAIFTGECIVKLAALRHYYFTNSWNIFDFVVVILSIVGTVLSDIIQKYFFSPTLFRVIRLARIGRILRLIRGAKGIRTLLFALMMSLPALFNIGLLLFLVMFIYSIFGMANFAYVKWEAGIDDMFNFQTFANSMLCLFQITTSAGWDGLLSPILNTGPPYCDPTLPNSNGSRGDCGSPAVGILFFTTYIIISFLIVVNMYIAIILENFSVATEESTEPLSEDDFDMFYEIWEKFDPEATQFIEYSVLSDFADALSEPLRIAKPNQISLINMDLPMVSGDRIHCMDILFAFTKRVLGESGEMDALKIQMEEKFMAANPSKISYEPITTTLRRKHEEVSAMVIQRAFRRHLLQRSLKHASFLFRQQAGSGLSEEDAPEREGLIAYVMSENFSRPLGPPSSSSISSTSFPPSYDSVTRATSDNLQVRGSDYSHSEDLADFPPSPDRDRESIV

Consider `Nc1nc(NC(=O)c2conc2C(F)(F)F)ccc1-c1cc(F)ccc1Cl` [Example 114], for which the IC50 (commonly the concentration needed to halve the response being measured) in test [1] was found to be 4 µM; on Human Nav1.5, 4.1 µM; on Human Nav1.8, 0.31 µM.

For `Nc1nc(NC(=O)c2ccno2)ccc1-c1cc(Cl)cc(Cl)c1Cl` [Example 78, N-[6-Amino-5-(2,3,5-trichlorophenyl)pyridin-2-yl]isoxazole-5-carboxamide], the figures for the IC50 (in test [1]; on Human Nav1.5; on Human Nav1.8) were 8.3 µM, 14 µM and 1.4 µM, respectively.

On to `Cn1nncc1C(=O)Nc1ccc(-c2cc(Cl)cc(Cl)c2Cl)c(N)n1` [Example 84, N-[6-Amino-5-(2,3,5-trichlorophenyl)pyridin-2-yl]-1-methyl-1H-1,2,3-triazole-5-carboxamide], for which the IC50 in test [1] turned out to be 6.5 µM; at Human Nav1.5, 5.3 µM; on Human Nav1.8, 2.4 µM.

Consider `N#Cc1cccc(C(=O)Nc2ccc(-c3ccccc3OC(F)(F)F)c(N)n2)c1` [Example 106, N-{6-Amino-5-[2-(trifluoromethoxy)phenyl]pyridin-2-yl}-3-cyanobenzamide], for which the IC50 was determined as 8.1 µM in test [1], 16 µM on Human Nav1.5 and 5.3 µM on Human Nav1.8.

As to `Cc1oncc1C(=O)Nc1ccc(-c2ccccc2Cl)c(N)n1` [Example 20, N-[6-Amino-5-(2-chlorophenyl)pyridin-2-yl]-5-methylisoxazole-4-carboxamide], the IC50 in test [1] worked out at 14 µM; at Human Nav1.5, 17 µM; on Human Nav1.8, 1 µM.

On to `Cn1nncc1C(=O)Nc1ccc(-c2ccccc2Cl)c(N)n1` [Example 82, N-[6-Amino-5-(2-chlorophenyl)pyridin-2-yl]-1-methyl-1H-1,2,3-triazole-5-carboxamide], for which the results for the concentration for half-maximal inhibition (IC50) (in test [1]; at Human Nav1.5; on Human Nav1.8) were above 32 µM, above 32 µM and 9.3 µM, respectively.

Regarding `CCn1nccc1C(=O)Nc1ccc(-c2cc(Cl)ccc2OC(F)(F)F)c(N)n1` [Example 63, N-{6-Amino-5-[5-chloro-2-(trifluoromethoxy)phenyl]pyridin-2-yl}-1-ethyl-1H-pyrazole-5-carboxamide], the IC50 in test [1] turned out to be 4.4 µM; on Human Nav1.5 it was 16 µM; on Human Nav1.8, 4.3 µM.

With `Nc1nc(NC(=O)c2conc2C(F)(F)F)ccc1-c1ccccc1OC(F)(F)F` [Example 112], the 50% inhibitory concentration (IC50) in test [1] was 4.5 µM; on Human Nav1.5 it was 7.7 µM; at Human Nav1.8, 0.94 µM.

Turning to `CCn1nccc1C(=O)Nc1ccc(-c2cc(OC(F)(F)F)ccc2Cl)c(N)n1` [Example 65, N-{6-Amino-5-[2-chloro-5-(trifluoromethoxy)phenyl]pyridin-2-yl}-1-ethyl-1H-pyrazole-5-carboxamide], the IC50 in test [1] amounted to 3.2 µM; at Human Nav1.5, 12 µM; at Human Nav1.8, 5.3 µM.

In the case of `COc1cc(Cl)cc(-c2ccc(NC(=O)c3conc3C)nc2N)c1Cl` [Example 27, N-[6-Amino-5-(2,5-dichloro-3-methoxyphenyl)pyridin-2-yl]-3-methylisoxazole-4-carboxamide], the IC50 in test [1] turned out to be 3.2 µM; on Human Nav1.5, 10 µM; at Human Nav1.8, 0.37 µM.

In the case of `COc1ccc(Cl)c(-c2ccc(NC(=O)c3conc3C)nc2N)c1` [Example 24, N-[6-Amino-5-(2-chloro-5-methoxyphenyl)pyridin-2-yl]-3-methylisoxazole-4-carboxamide], the IC50 in test [1] turned out to be 11 µM; on Human Nav1.5 it was 8.5 µM; at Human Nav1.8, 0.44 µM.

Consider `CCn1nccc1C(=O)Nc1ccc(-c2cccc(F)c2Cl)c(N)n1` [Example 58, N-[6-Amino-5-(2-chloro-3-fluorophenyl)pyridin-2-yl]-1-ethyl-1H-pyrazole-5-carboxamide], for which the IC50 in test [1] was found to be 17 µM; on Human Nav1.5, 31 µM; on Human Nav1.8, 9.3 µM.

Consider `Cn1nncc1C(=O)Nc1ccc(-c2cc(Cl)ccc2Cl)c(N)n1` [Example 80, N-[6-Amino-5-(2,5-dichlorophenyl)pyridin-2-yl]-1-methyl-1H-1,2,3-triazole-5-carboxamide], for which the values for the IC50 (in test [1]; on Human Nav1.5; on Human Nav1.8) were 15 µM, 15 µM and 3.4 µM, respectively.

As to `Cn1nccc1C(=O)Nc1ccc(-c2ccccc2Cl)c(N)n1` [Example 1, N-[6-Amino-5-(2-chlorophenyl)pyridin-2-yl]-1-methyl-1H-pyrazole-5-carboxamide], the IC50 was above 32 µM in test [1], 24 µM on Human Nav1.5 and 5.8 µM on Human Nav1.8.

On to `Cn1nccc1C(=O)Nc1ccc(-c2cc(F)ccc2OC(F)(F)F)c(N)n1` [Example 116], for which the 50% inhibitory concentration (IC50) in test [1] came out at 26 µM; on Human Nav1.5 it was 28 µM; on Human Nav1.8, 2.3 µM.

Turning to `Cc1nocc1C(=O)Nc1ccc(-c2cc(O)ccc2Cl)c(N)n1` [Example 175, N-[6-amino-5-(2-chloro-5-hydroxyphenyl)pyridin-2-yl]-3-methylisoxazole-4-carboxamide], the IC50 in test [1] is 20 µM; on Human Nav1.5 it was above 32 µM; at Human Nav1.8, 23 µM.

In the case of `Cn1nccc1C(=O)Nc1ccc(-c2cccc(F)c2Cl)c(N)n1` [Example 13, N-[6-Amino-5-(2-chloro-3-fluorophenyl)pyridin-2-yl]-1-methyl-1H-pyrazole-5-carboxamide], the IC50 in test [1] was above 32 µM; on Human Nav1.5, above 32 µM; at Human Nav1.8, 8.8 µM.

For `Cn1nccc1C(=O)Nc1ccc(-c2cc(Cl)ccc2Cl)c(N)n1` [Example 3, N-[6-Amino-5-(2,5-dichlorophenyl)pyridin-2-yl]-1-methyl-1H-pyrazole-5-carboxamide], the IC50 amounted to 11 µM in test [1], 15 µM on Human Nav1.5 and 0.9 µM at Human Nav1.8.

For `Cc1nocc1C(=O)Nc1ccc(-c2cc(F)ccc2Cl)c(N)n1` [Example 41, N-[6-Amino-5-(2-chloro-5-fluorophenyl)pyridin-2-yl]-3-methylisoxazole-4-carboxamide], the IC50 amounted to 11 µM in test [1], 12 µM at Human Nav1.5 and 0.25 µM at Human Nav1.8.

With `COc1cc(Cl)c(Cl)c(-c2ccc(NC(=O)c3nonc3C)nc2N)c1` [Example 48, N-[6-Amino-5-(2,3-dichloro-5-methoxyphenyl)pyridin-2-yl]-4-methyl-1,2,5-oxadiazole-3-carboxamide], the IC50 in test [1] came to 3.3 µM; at Human Nav1.5, 22 µM; at Human Nav1.8 it was 0.76 µM.

As for `CCn1nccc1C(=O)Nc1ccc(-c2cc(Cl)ccc2Cl)c(N)n1` [Example 56, N-[6-Amino-5-(2,5-dichlorophenyl)pyridin-2-yl]-1-ethyl-1H-pyrazole-5-carboxamide], the IC50 in test [1] worked out at 8.1 µM; at Human Nav1.5, 17 µM; at Human Nav1.8, 2.4 µM.

Turning to `COc1cc(Cl)cc(-c2ccc(NC(=O)c3ccnn3C)nc2N)c1Cl` [Example 8, N-[6-Amino-5-(2,5-dichloro-3-methoxyphenyl)pyridin-2-yl]-1-methyl-1H-pyrazole-5-carboxamide], the IC50 in test [1] worked out at 7.6 µM; on Human Nav1.5, 20 µM; at Human Nav1.8, 1.6 µM.

For `Cc1nonc1C(=O)Nc1ccc(-c2cc(F)ccc2Cl)c(N)n1` [Example 47, N-[6-Amino-5-(2-chloro-5-fluorophenyl)pyridin-2-yl]-4-methyl-1,2,5-oxadiazole-3-carboxamide], the IC50 in test [1] amounted to 6.1 µM; at Human Nav1.5 it was 7.4 µM; at Human Nav1.8, 1.4 µM.

On to `COCc1cc(C(=O)Nc2ccc(-c3ccccc3OC(F)(F)F)c(N)n2)on1` [Example 94], for which the values for the IC50 (in test [1]; on Human Nav1.5; on Human Nav1.8) were 19 µM, 31 µM and above 32 µM, respectively.

With `COCc1oncc1C(=O)Nc1ccc(-c2ccccc2OC(F)(F)F)c(N)n1` [Example 93], the IC50 in test [1] is 7.1 µM; on Human Nav1.5 it was above 32 µM; at Human Nav1.8, 1.5 µM.

Turning to `Cn1nccc1C(=O)Nc1ccc(-c2ccccc2C(F)(F)F)c(N)n1` [Example 14, N-{6-Amino-5-[2-(trifluoromethyl)phenyl]pyridin-2-yl}-1-methyl-1H-pyrazole-5-carboxamide], the IC50 in test [1] is above 32 µM; on Human Nav1.5, above 32 µM; on Human Nav1.8, 8.4 µM.

`Cc1nocc1C(=O)Nc1ccc(-c2ccccc2Cl)c(N)n1` [Example 26, N-[6-Amino-5-(2-chlorophenyl)pyridin-2-yl]-3-methylisoxazole-4-carboxamide]: the IC50 in test [1] came out at 8.5 µM; at Human Nav1.5, 11 µM; at Human Nav1.8, 0.56 µM.

Turning to `Cc1nonc1C(=O)Nc1ccc(-c2ccccc2OC(F)(F)F)c(N)n1` [Example 50, N-{6-Amino-5-[2-(trifluoromethoxy)phenyl]pyridin-2-yl}-4-methyl-1,2,5-oxadiazole-3-carboxamide], the results for the IC50 (in test [1]; on Human Nav1.5; at Human Nav1.8) were 9.8 µM, 19 µM and 3.1 µM, respectively.

Consider `CC(C)n1nccc1C(=O)Nc1ccc(-c2cc(OC(F)(F)F)ccc2Cl)c(N)n1` [Example 69, N-{6-Amino-5-[2-chloro-5-(trifluoromethoxy)phenyl]pyridin-2-yl}-1-isopropyl-1H-pyrazole-5-carboxamide], for which the IC50 in test [1] was 3.6 µM; at Human Nav1.5 it was 16 µM; on Human Nav1.8, 16 µM.

On to `Cn1nncc1C(=O)Nc1ccc(-c2ccccc2OC(F)(F)F)c(N)n1` [Example 85, N-{6-Amino-5-[2-(trifluoromethoxy)phenyl]pyridin-2-yl}-1-methyl-1H-1,2,3-triazole-5-carboxamide], for which the IC50 in test [1] came to 28 µM; at Human Nav1.5, 31 µM; on Human Nav1.8, 7 µM.

Consider `Cc1nocc1C(=O)Nc1ccc(-c2ccccc2C(F)F)c(N)n1` [Example 42, N-[6-Amino-5-[2-(difluoromethyl)phenyl]pyridin-2-yl]-3-methylisoxazole-4-carboxamide], for which the IC50 is 22 µM in test [1], above 32 µM on Human Nav1.5 and 2.5 µM at Human Nav1.8.
